Values quoted from earlier work in US20110287109A1 (MAX INTERNATIONAL, LLC, priority 2010, published 2011).

Legend:
[1] = test system: irradiation-induced bowel injury; settings: mice, 1 g/kg
glutathione levels = settings: mice, 8 mmol/kg i.p.
[2] = test system: mice exposed to cyclophosphamide; settings: 8 mmol/kg
[3] = test system: acetaminophen hepatic and renal toxicity; settings: mice, 2 g/kg
[4] = administered directly to humans
ATP levels = settings: dogs subjected to ischemia (heart attack model), about 3 g/day for at least 5 days
exercise capacity = settings: healthy humans, orally, 8-10 g per day by an adult

| SMILES | protection against irradiation-induced bowel injury [1] | increase of glutathione level in heart (glutathione levels; heart) [×] | increase of glutathione level in muscle tissue (glutathione levels; muscle tissue) [×] | delivery of protective amounts of cysteine [2] | protection against acetaminophen hepatic and renal toxicity [3] | toxicity over wide dosage ranges [4] | ATP levels (ATP levels) | exercise capacity (exercise capacity) |
| --- | --- | --- | --- | --- | --- | --- | --- | --- |
| O=C(O)[C@@H]1CSC(C(O)C(O)C(O)CO)N1 (stereo partly drawn) [RibCys, 2(R,S)-D-ribo-(1′,2′,3′,4′-tetrahydroxybutyl)thiazolidine-4(R)-carboxylic acid] | protect mice against irradiation-induced bowel injury | 1.5 | 2.5 | deliver effective protective amounts of cysteine | protect mice against acetaminophen hepatic and renal toxicity | – | – | – |
| O=C[C@H](O)[C@H](O)[C@H](O)CO [ribose] | – | – | – | – | – | essentially non-toxic | effectively restored and maintained ATP levels | increase exercise capacity |
